The test system of test [1] is Human epithelial lung carcinoma cell line A549. In words: Cell based assay for measuring eicosanoid selectivity (rhIL-1β-induced PGE2, EIA). The settings on record: A549 cells, rhIL-1β 0.1 ng/mL, approximately 18 hours, read-out: IC50, inhibition of PGE2 formation. How it is done: Human epithelial lung carcinoma cell line A549 is obtained from ATCC (CCL-185) and maintained in cell growth medium (Kaighn's F12 cell culture medium+10% fetal bovine serum (FBS)), under standard 5% CO2 humidified atmosphere at 37° C. The cells are passaged at 1:3 twice per week.
For the assays, cells are harvested from flasks by washing once with phosphate buffered saline (PBS), then once with Trypsin-EDTA. After 3-5 minutes at 37° C., the cells are suspended in cell growth medium and centrifuged at 2,000 rpm, 25° C., for 5 minutes. The supernatant is aspirated and the cell pellet is re-suspended in cell growth medium. The cell number is determined by counting an aliquot of cells which has been diluted in PBS and Trypan blue on a hemocytometer. Cells are plated at 40,000/well in 96 well Falcon plates 24 hours prior to treatment. Compounds are diluted in DMSO to 100× of the final concentration in Screen Mates tubes. The medium is removed from the cells and fresh medium (90 μL/well) is added to the cells. The compounds are added at 1 μL/well, n=2, to give seven concentrations each. Cells are pretreated with compounds for 30 minutes at 37° C., 5% CO2. […] After approximately 90-120 minutes at room temperature on an orbital shaker at 100 rpm, the plates are read at A412 on a plate reader. […]

Another test has as its system human whole blood. In words: Human whole blood assay (LPS-induced PGE2, LC/MS/MS). The test is classed as cell-based. As to conditions: LPS 100 μg/mL, 20-24 hours, n=6, read-out: IC50, inhibition of PGE2 formation. How it is done: Blood is collected from normal volunteer donors into sodium heparin VACUTAINER tubes. Donors are selected, in part, on their confirmation that they have not taken NSAIDs, aspirin, Celebrex®, or glucocorticoids within two weeks of the donation. All tubes/donor are pooled into 250 mL Corning conical centrifuge tubes and 436.5 μL/well is distributed into deep well polypropylene plates. Compounds are diluted in DMSO to 100× final and 4.5 μL/well in duplicate or triplicate is added to give 7 point curves. […] One hundred microliters is quantitatively transferred to Costar cluster tubes blocks and 400 μL/well of the methanol stop reagent and internal standards, d4-PGE2, d4-PGF2α, and […] are added. […]
Solid phase extraction is performed using Waters HLB 30 mg/bed 96 well plates on a vacuum manifold: Step 1, the matrix is washed with methanol (1 mL), followed by 0.1% formic acid in water (1 mL); Step 2, 400 μL sample is applied along with 0.1% formic acid in water (900 μL) and allowed to bind for 5 minutes; Step 3, the matrix is washed with 0.1% formic acid in water (600 μL), followed by 80/20 water/methanol (600 μL); Step 4, the products are eluted with 2-500 μL volumes of EtOAc; Step 5 the samples are dried under nitrogen and reconstituted in 75/25 water/acetonitrile with 0.1% formic acid (50 μL). The products are analyzed by LC/MS/MS.

Broadly, the IC50 is the concentration needed to halve the response being measured.

Take `Cc1cccc2ccc(N3CCC(C(=O)N[C@H]4CCC[C@H]4CCc4ccccc4C(=O)O)CC3)nc12` [Example 1, 2-(2-((1S,2S)-2-(1-(8-Methylquinolin-2-yl)piperidine-4-carboxamido)cyclopentyl)ethyl)benzoic acid]: the IC50 in test [1] worked out at 5.3 nM; with human whole blood, 5.9 ± 3.4 nM.

Source of the values: patent US9969714B2, “Carboxylic acid compounds useful for inhibiting microsomal prostaglandin E2 synthase-1” (Eli Lilly and Company, priority 2014, dated 2018).
